From paper PMC3388095, “Fluorophore Labeled Kinase Detects Ligands That Bind within the MAPK Insert of p38α Kinase” (PLoS ONE, 2012)

Tests used:
p38α = experiment: glycine-rich loop FLiK binding assay (library screen); settings: initial library screen
Aurora A = Aurora A (Homo sapiens, UniProt O14965); experiment: Kinase selectivity profile, 33P-ATP filter-binding assay; format: biochemical
Procedure, shortened: (§1)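 Each kinase was incubated with the compound at 10 µM, phosphotransfer from 33P-ATP was captured by filter binding, and activity remaining relative to uninhibited enzyme was reported in %.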

DYRK1A = DYRK1A (Homo sapiens, UniProt Q13627); experiment: as above; format: biochemical
Procedure, shortened: as §1

DYRK2 = DYRK2 (Homo sapiens, UniProt Q92630); experiment: as above; format: biochemical
Sequence of DYRK2 (Q92630 whole entry): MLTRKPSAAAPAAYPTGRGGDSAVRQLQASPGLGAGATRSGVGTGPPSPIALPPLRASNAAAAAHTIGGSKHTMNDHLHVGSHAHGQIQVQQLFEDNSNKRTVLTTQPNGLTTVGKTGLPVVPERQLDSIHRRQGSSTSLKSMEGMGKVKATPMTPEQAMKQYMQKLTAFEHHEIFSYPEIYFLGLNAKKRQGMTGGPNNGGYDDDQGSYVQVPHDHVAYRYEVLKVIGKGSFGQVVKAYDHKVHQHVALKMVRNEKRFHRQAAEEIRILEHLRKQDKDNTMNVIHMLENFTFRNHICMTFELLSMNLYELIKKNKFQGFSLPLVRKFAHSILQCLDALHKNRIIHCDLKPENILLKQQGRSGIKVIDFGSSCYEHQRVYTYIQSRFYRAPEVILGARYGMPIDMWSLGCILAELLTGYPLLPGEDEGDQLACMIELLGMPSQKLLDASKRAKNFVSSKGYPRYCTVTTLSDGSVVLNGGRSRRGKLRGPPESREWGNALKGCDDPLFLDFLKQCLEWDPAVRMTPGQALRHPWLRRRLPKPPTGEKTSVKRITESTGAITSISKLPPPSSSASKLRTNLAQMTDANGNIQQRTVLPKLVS
Procedure, shortened: as §1

HIPK2 = HIPK2 (Homo sapiens, UniProt Q9H2X6); experiment: as above; format: biochemical
Sequence of HIPK2 (Q9H2X6 whole entry): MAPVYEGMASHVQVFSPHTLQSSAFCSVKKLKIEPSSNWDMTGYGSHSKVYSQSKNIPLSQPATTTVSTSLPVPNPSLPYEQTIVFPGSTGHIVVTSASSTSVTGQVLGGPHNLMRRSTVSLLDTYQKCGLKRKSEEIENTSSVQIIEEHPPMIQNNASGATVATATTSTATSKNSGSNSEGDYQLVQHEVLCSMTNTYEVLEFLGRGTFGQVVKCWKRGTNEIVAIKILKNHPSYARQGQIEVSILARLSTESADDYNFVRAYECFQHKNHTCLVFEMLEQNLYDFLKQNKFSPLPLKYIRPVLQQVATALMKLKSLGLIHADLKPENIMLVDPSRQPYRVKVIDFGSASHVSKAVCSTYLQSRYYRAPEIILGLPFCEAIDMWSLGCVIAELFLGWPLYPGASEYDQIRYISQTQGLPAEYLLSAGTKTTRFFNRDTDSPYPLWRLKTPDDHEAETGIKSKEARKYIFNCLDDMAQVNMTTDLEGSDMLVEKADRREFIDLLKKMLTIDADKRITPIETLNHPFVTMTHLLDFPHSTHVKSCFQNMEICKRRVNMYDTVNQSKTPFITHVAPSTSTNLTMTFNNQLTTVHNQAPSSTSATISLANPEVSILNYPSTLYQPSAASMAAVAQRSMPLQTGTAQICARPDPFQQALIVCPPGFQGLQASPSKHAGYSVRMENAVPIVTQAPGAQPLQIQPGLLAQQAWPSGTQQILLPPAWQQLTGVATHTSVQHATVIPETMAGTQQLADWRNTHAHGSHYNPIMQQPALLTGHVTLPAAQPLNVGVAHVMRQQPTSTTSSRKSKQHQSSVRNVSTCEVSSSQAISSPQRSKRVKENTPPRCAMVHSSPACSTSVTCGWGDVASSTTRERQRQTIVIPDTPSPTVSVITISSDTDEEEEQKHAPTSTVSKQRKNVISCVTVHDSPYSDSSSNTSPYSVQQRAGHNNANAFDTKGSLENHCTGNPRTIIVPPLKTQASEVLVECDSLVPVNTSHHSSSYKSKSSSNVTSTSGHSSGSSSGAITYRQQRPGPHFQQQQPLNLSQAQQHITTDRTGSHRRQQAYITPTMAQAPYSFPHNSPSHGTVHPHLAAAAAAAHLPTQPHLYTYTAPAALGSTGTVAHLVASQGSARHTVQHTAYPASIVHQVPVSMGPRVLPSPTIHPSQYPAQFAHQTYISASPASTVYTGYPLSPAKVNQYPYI
Procedure, shortened: as §1

JNK1 = JNK1 (Homo sapiens, UniProt P45983); experiment: as above; format: biochemical
Sequence of JNK1 (P45983 whole entry): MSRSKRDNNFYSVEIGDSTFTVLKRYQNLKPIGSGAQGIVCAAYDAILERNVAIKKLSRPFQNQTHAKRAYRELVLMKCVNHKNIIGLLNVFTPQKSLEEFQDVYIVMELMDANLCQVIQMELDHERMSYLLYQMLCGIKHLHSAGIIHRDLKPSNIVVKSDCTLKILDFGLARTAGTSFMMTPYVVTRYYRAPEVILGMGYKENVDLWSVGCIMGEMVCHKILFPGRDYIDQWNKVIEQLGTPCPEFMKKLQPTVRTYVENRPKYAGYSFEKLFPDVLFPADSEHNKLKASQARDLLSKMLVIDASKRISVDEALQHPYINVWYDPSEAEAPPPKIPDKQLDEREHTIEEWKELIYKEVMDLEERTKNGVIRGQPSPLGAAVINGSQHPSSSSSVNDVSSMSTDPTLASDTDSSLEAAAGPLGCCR
Procedure, shortened: as §1

JNK2 = JNK2 (Homo sapiens, UniProt P45984); experiment: as above; format: biochemical
Sequence of JNK2 (P45984 whole entry): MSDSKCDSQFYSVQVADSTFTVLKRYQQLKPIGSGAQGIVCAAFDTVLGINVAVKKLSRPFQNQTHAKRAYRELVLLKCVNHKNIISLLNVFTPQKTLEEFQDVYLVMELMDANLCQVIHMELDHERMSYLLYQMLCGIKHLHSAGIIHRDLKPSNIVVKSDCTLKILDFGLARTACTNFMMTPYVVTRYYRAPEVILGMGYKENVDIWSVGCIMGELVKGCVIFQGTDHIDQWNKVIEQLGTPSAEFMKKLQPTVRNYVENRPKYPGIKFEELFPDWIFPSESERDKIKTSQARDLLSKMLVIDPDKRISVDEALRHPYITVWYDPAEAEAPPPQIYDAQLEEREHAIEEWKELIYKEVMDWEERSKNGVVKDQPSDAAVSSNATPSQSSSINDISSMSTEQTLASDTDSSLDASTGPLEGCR
Procedure, shortened: as §1

MAPKAP-K3 = MAPKAP-K3 (Homo sapiens, UniProt Q16644); experiment: as above; format: biochemical
Procedure, shortened: as §1

MELK = MELK (Homo sapiens, UniProt Q14680); experiment: as above; format: biochemical
Sequence of MELK (Q14680 whole entry): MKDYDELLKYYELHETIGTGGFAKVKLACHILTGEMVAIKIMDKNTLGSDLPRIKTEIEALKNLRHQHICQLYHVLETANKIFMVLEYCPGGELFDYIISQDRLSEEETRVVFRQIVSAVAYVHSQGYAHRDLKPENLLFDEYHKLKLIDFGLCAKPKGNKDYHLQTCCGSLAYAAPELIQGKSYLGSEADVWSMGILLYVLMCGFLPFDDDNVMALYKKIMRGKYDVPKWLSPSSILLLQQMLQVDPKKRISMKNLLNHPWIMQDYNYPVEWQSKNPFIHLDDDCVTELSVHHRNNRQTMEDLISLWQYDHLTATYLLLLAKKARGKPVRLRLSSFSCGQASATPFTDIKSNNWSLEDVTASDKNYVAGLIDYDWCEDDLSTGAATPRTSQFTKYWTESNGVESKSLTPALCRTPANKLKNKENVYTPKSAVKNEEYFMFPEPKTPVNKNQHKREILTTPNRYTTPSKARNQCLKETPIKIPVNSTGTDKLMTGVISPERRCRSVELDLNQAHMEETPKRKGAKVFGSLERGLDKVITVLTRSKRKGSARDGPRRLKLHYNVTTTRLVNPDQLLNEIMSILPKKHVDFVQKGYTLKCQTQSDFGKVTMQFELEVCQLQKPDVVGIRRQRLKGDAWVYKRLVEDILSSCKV
Procedure, shortened: as §1

PRAK = PRAK (Homo sapiens, UniProt Q8IW41); experiment: as above; format: biochemical
Sequence of PRAK (Q8IW41 whole entry): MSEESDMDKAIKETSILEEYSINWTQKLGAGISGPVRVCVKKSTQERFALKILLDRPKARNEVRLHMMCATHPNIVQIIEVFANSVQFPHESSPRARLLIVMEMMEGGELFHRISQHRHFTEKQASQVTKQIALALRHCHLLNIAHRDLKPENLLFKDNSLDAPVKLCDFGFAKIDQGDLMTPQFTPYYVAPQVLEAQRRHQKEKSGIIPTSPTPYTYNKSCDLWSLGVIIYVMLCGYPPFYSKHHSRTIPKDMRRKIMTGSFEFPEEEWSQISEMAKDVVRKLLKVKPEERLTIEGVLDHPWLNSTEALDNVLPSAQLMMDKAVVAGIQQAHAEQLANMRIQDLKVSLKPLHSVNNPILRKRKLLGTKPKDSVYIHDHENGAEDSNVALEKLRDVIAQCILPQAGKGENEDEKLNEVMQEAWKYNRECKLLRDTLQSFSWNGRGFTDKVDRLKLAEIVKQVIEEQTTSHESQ
Procedure, shortened: as §1

SRPK1 = SRPK1 (Homo sapiens, UniProt Q96SB4); experiment: as above; format: biochemical
Procedure, shortened: as §1

p38α MAPK = p38α MAPK (Homo sapiens, UniProt Q16539); experiment: as above; format: biochemical
Sequence of p38α MAPK (Q16539 whole entry): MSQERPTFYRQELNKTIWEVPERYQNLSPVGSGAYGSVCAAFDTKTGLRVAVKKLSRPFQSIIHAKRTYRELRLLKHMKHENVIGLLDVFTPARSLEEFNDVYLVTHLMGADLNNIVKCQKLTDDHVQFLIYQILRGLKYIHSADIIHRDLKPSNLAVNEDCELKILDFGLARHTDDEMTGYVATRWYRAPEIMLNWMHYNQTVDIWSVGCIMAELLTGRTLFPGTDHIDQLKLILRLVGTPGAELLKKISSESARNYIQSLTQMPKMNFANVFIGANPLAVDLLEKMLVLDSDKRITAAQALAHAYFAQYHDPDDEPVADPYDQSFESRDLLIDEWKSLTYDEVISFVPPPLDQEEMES
Procedure, shortened: as §1

p38γ MAPK = p38γ MAPK (Homo sapiens, UniProt P53778); experiment: as above; format: biochemical
Sequence of p38γ MAPK (P53778 whole entry): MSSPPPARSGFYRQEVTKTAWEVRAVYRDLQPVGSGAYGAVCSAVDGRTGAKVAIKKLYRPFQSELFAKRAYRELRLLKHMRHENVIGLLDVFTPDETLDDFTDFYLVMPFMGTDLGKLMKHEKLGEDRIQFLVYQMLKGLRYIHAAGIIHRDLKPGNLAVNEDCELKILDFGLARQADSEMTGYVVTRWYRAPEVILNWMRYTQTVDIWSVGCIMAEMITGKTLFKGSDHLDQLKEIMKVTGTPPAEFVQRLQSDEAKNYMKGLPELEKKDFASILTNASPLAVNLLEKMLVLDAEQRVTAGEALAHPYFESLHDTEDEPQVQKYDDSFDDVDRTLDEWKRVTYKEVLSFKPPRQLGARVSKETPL
Procedure, shortened: as §1

Sequence of Aurora A (O14965 whole entry): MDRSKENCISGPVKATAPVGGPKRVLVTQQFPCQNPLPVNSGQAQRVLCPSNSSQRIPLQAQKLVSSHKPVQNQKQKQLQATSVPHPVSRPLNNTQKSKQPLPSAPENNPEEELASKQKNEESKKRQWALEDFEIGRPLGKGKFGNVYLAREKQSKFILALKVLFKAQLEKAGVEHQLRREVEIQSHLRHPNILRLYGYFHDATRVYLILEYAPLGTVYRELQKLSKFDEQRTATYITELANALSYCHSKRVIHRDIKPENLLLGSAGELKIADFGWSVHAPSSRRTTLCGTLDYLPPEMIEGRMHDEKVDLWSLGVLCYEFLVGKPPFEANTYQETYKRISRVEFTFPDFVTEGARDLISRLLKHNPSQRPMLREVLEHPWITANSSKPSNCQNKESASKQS

`Nc1ccc2c(NC3CC3)nc(-c3ccccc3)nc2c1` [1b, N^4-Cyclopropyl-2-phenyl-4,7-quinazolinediamine] was tested, and the “binding detected by glycine-rich loop FLiK assay” value (p38α) was “weakly detected”, the remaining activity at 10 µM (Aurora A) was 104% and the remaining activity at 10 µM (DYRK1A) was 95%. It also gave a remaining activity at 10 µM (DYRK2) of 88%, a remaining activity at 10 µM (HIPK2) of 101% and a remaining activity at 10 µM (JNK1) of 94%. It also gave a remaining activity at 10 µM (JNK2) of 101%, a remaining activity at 10 µM (MAPKAP-K3) of 84% and a remaining activity at 10 µM (MELK) of 85%. For the same compound, the remaining activity at 10 µM (PRAK) was 91%, the remaining activity at 10 µM (SRPK1) was 83% and the remaining activity at 10 µM (p38α MAPK) was 88%. The remaining activity at 10 µM (p38γ MAPK) was 105%.
